This note sets out measurements from patent publication US5279956A, “Activated protein C polypeptides and anti-peptide antibodies, diagnostic methods and systems for inhibiting activated protein C” (The Scripps Research Institute, priority 1991, dated 1994).

The test concerns the target T1, APC (Homo sapiens, UniProt P04070).
T1 construct: begins at amino acid residue position 158 and ends at 419; The light chain is 155 amino acid residues in length; tissue Factor IX concentrate from Immuno AG, Vienna; thrombin from Enzyme Research Laboratories
Description: APC-catalyzed inactivation of Factor Va, read out by Factor Va-prothrombinase assay. The class given is biochemical. The procedure:
FIG. 5 illustrates the APC-catalyzed inactivation of Factor Va in the presence of peptide-(390-404) and phospholipids. The assay was carried out in TBS-BSA and 2.5 mM CaCl2 at pH 7.4 as described in Example 5a5) using 0.25 nM APC, 10.0 nM Va, 50 μM phospholipid vesicles and 0 to 50 μM peptide-(390-404), that had been preincubated for 20 minutes at 22° C. with Factor Va. Factor Va inactivation by APC was indirectly determined using the cofactor activity of Factor Va in a prothrombinase assay as described in Example 5a5). Residual APC activity in the presence of the peptide was calculated from a standard curve.
The assay consisted of two parts wherein the APC catalyzed inactivation of Factor Va in the absence or presence of peptides was tested in the first part followed by the indirect determination of remaining Factor Va activity in a prothrombinase assay in the second part.
The APC catalyzed inactivation of Factor Va assays were performed in 96-well flat bottom ELISA plates (Stockwell Scientific, Walnut, Calif.). The reactions were performed either in the presence or absence of phospholipid vesicles to determine if peptide-(390-404) inhibited APC anticoagulant activity by inhibiting the binding of APC or its substrate to phospholipids or if it was independent of phospholipid surfaces. […]

No end group written: not given here.

T1 sequence (P04070 212-461): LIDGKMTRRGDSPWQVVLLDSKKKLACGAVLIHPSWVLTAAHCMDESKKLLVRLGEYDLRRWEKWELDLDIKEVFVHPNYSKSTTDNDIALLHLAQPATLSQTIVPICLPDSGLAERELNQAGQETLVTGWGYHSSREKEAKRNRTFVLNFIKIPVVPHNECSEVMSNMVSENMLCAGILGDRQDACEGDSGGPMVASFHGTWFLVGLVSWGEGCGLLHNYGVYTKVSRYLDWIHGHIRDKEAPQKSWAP
T1 sequence (P04070 43-197): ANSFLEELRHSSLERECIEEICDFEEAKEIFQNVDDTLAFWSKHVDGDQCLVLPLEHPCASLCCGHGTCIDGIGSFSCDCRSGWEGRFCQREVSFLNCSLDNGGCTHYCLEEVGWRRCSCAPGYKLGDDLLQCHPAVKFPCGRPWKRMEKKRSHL

For the substance “YGVYTKVSRYLDWIH-NH2 [peptide-(390-404), YGVYTKVSRYLDWIH]”, where the note is “50 μM phospholipid vesicles, 0.25 nM APC, 10.0 nM Va, read-out: half-maximal inhibition of APC-catalyzed inactivation of Factor Va”, the IC50 stood at 4 µM. The “inhibition of APC activity” value (absence of phospholipids, 5 nM APC, 40 nM Va, 50 μM peptide) is reported as 94%.
